Results published in US9278068B2, “Vesicle compositions” (Sensulin LLC, priority 2011, dated 2016).

System: HeLa cells
Assay: MTT assay for cytotoxicity
Conditions: 40 nM, 2 h
Procedure: The cytotoxicity of the boronic acid derivatives from Table 1 was studied by MTT assay. 150,000 HeLa cells were plated in 96 well plates on the night before the experiments. On the day of experiments, the cells were treated with the boronic acid derivatives at three different concentrations (40 nM, 80 nM, and 160 nM) for 2 h. At the end of the incubation, MTT assays (In-Vitro toxicology MTT based assay kit, Sigma Aldrich, MO) were performed according to the manufacturer's protocol.

SMILES | MTT (% Cell Survival) 40 nM
OB(O)c1cnc(OCc2ccccc2)nc1OCc1ccccc1 [2,4-bis(benzyloxy)pyrimidine-5-boronic acid] | 100.05%
CCS(=O)(=O)c1ccc(B(O)O)cc1 [4-ethylsulfonyl-phenylboronic acid] | 67.61%
O=c1[nH]cc(B(O)O)c(=O)[nH]1 [uracil-5-boronic acid] | 68.5083%
COc1ccc(C#N)cc1B(O)O [5-cyano-2-methoxyphenylboronic acid] | 81.55%
CCCOc1ccccc1B(O)O [2-propoxyphenylboronic acid] | 45.7459%
OB(O)c1cccc2c1oc1ccccc12 [4-dibenzofuranboronic acid] | 71.48%
OB(O)c1cccc(OCc2ccccc2)c1 [3-(benzyloxy)phenylboronic acid] | 99.83%
OB(O)C1CC1 [cyclopropylboronic acid] | 81.55%
N#Cc1ccc(B(O)O)s1 [5-cyanothiophene-2-boronic acid] | 80.56%
CN(C)c1ccc(B(O)O)cc1 [4-(dimethylamino)phenylboronic acid] | 78.59%
OB(O)c1cscc1Br [3-bromothiophene-4-boronic acid] | 76.45%
OB(O)c1cccc2cnccc12 [5-isoquinolineboronic acid] | 75.80%
CC(C)OB(CBr)OC(C)C [diisopropyl(bromomethyl)boronate] | 81.27%
OB(O)c1cncc(Br)c1 [5-bromopyridine-3-boronic acid] | 134.748%
CCOc1ccc(B(O)O)cn1 [2-ethoxy-5-pyridine-boronic acid] | 81.40%
OB(O)c1cc2cc(Br)ccc2s1 [5-bromobenzo-B-thophene-2boronic acid] | 71.83%
COc1cccc(OC)c1B(O)O [2,6-dimethoxyphenylboronic acid] | 92.66%
Cc1noc(C)c1B(O)O [3,5-dimethylisoxazole-4-boronic acid] | 88.37%
OB(O)c1ccc2ccccc2c1 [2-napthylboronic acid] | 24.3831%
OB(O)/C=C/c1ccccc1 [trans-2-Phenylvinylboronic acid] | 72.90%
OB(O)c1ccccc1Cl [2-chlorophenylboronic acid] | 86.3068%
N#Cc1cc(B(O)O)ccc1F [3-cyano-4-fluorophenylboronic acid] | 89.30%
NC(=O)c1cccc(B(O)O)c1 [3-aminocarbonylphenylboronic acid] | 101.02%
OB(O)C1=CCCC1 [cyclopenten-1-yl boronic acid] | 99.21%
OB(O)c1ccnc(Cl)c1 [2-chloropyridine-4-boronic acid] | 84.93%

Same assay, conditions: 80 nM, 2 h

SMILES | MTT (% Cell Survival) 80 nM
OB(O)c1cnc(OCc2ccccc2)nc1OCc1ccccc1 [2,4-bis(benzyloxy)pyrimidine-5-boronic acid] | 89.04%
CCS(=O)(=O)c1ccc(B(O)O)cc1 [4-ethylsulfonyl-phenylboronic acid] | 66.47%
O=c1[nH]cc(B(O)O)c(=O)[nH]1 [uracil-5-boronic acid] | 50.3499%
COc1ccc(C#N)cc1B(O)O [5-cyano-2-methoxyphenylboronic acid] | 49.84%
CCCOc1ccccc1B(O)O [2-propoxyphenylboronic acid] | 42.2099%
OB(O)c1cccc2c1oc1ccccc12 [4-dibenzofuranboronic acid] | 75.50%
OB(O)c1cccc(OCc2ccccc2)c1 [3-(benzyloxy)phenylboronic acid] | 71.94%
OB(O)C1CC1 [cyclopropylboronic acid] | 107.79%
N#Cc1ccc(B(O)O)s1 [5-cyanothiophene-2-boronic acid] | 40.00%
CN(C)c1ccc(B(O)O)cc1 [4-(dimethylamino)phenylboronic acid] | 71.75%
OB(O)c1cscc1Br [3-bromothiophene-4-boronic acid] | 95.90%
OB(O)c1cccc2cnccc12 [5-isoquinolineboronic acid] | 60.84%
CC(C)OB(CBr)OC(C)C [diisopropyl(bromomethyl)boronate] | 96.62%
OB(O)c1cncc(Br)c1 [5-bromopyridine-3-boronic acid] | 37.2764%
CCOc1ccc(B(O)O)cn1 [2-ethoxy-5-pyridine-boronic acid] | 69.58%
OB(O)c1cc2cc(Br)ccc2s1 [5-bromobenzo-B-thophene-2boronic acid] | 81.40%
COc1cccc(OC)c1B(O)O [2,6-dimethoxyphenylboronic acid] | 78.05%
Cc1noc(C)c1B(O)O [3,5-dimethylisoxazole-4-boronic acid] | 90.63%
OB(O)c1ccc2ccccc2c1 [2-napthylboronic acid] | 37.2192%
OB(O)/C=C/c1ccccc1 [trans-2-Phenylvinylboronic acid] | 99.51%
OB(O)c1ccccc1Cl [2-chlorophenylboronic acid] | 60.0002%
N#Cc1cc(B(O)O)ccc1F [3-cyano-4-fluorophenylboronic acid] | 60.46%
NC(=O)c1cccc(B(O)O)c1 [3-aminocarbonylphenylboronic acid] | 77.93%
OB(O)C1=CCCC1 [cyclopenten-1-yl boronic acid] | 79.90%
OB(O)c1ccnc(Cl)c1 [2-chloropyridine-4-boronic acid] | 58.47%

Same assay, conditions: 160 nM, 2 h

SMILES | MTT (% Cell Survival) 160 nM
OB(O)c1cnc(OCc2ccccc2)nc1OCc1ccccc1 [2,4-bis(benzyloxy)pyrimidine-5-boronic acid] | 74.74%
CCS(=O)(=O)c1ccc(B(O)O)cc1 [4-ethylsulfonyl-phenylboronic acid] | 37.46%
O=c1[nH]cc(B(O)O)c(=O)[nH]1 [uracil-5-boronic acid] | 28.07%
COc1ccc(C#N)cc1B(O)O [5-cyano-2-methoxyphenylboronic acid] | 62.08%
CCCOc1ccccc1B(O)O [2-propoxyphenylboronic acid] | 41.95%
OB(O)c1cccc2c1oc1ccccc12 [4-dibenzofuranboronic acid] | 70.50%
OB(O)c1cccc(OCc2ccccc2)c1 [3-(benzyloxy)phenylboronic acid] | 28.92%
OB(O)C1CC1 [cyclopropylboronic acid] | 80.01%
N#Cc1ccc(B(O)O)s1 [5-cyanothiophene-2-boronic acid] | 44.78%
CN(C)c1ccc(B(O)O)cc1 [4-(dimethylamino)phenylboronic acid] | 51.04%
OB(O)c1cscc1Br [3-bromothiophene-4-boronic acid] | 97.49%
OB(O)c1cccc2cnccc12 [5-isoquinolineboronic acid] | 41.69%
CC(C)OB(CBr)OC(C)C [diisopropyl(bromomethyl)boronate] | 79.32%
OB(O)c1cncc(Br)c1 [5-bromopyridine-3-boronic acid] | 30.04%
CCOc1ccc(B(O)O)cn1 [2-ethoxy-5-pyridine-boronic acid] | 33.80%
OB(O)c1cc2cc(Br)ccc2s1 [5-bromobenzo-B-thophene-2boronic acid] | 90.42%
COc1cccc(OC)c1B(O)O [2,6-dimethoxyphenylboronic acid] | 48.60%
Cc1noc(C)c1B(O)O [3,5-dimethylisoxazole-4-boronic acid] | 42.89%
OB(O)c1ccc2ccccc2c1 [2-napthylboronic acid] | 21.1%
OB(O)/C=C/c1ccccc1 [trans-2-Phenylvinylboronic acid] | 65.87%
OB(O)c1ccccc1Cl [2-chlorophenylboronic acid] | 45.45%
N#Cc1cc(B(O)O)ccc1F [3-cyano-4-fluorophenylboronic acid] | 47.56%
NC(=O)c1cccc(B(O)O)c1 [3-aminocarbonylphenylboronic acid] | 29.19%
OB(O)C1=CCCC1 [cyclopenten-1-yl boronic acid] | 68.16%
OB(O)c1ccnc(Cl)c1 [2-chloropyridine-4-boronic acid] | 56.36%

System: NF-κB
Assay: NF-κB assay for inflammation (nuclear translocation of NF-κB, immunocytochemistry, PCC)
Conditions: HeLa cells, 40 nM, 2 h; PCC between nuclear and cytoplasmic fraction of NF-κB

SMILES | Inflammation (PCC) 40 nM
OB(O)c1cnc(OCc2ccccc2)nc1OCc1ccccc1 [2,4-bis(benzyloxy)pyrimidine-5-boronic acid] | −0.0647
CCS(=O)(=O)c1ccc(B(O)O)cc1 [4-ethylsulfonyl-phenylboronic acid] | 0.00184
O=c1[nH]cc(B(O)O)c(=O)[nH]1 [uracil-5-boronic acid] | −0.0586
COc1ccc(C#N)cc1B(O)O [5-cyano-2-methoxyphenylboronic acid] | −0.0808
CCCOc1ccccc1B(O)O [2-propoxyphenylboronic acid] | −0.0398
OB(O)c1cccc2c1oc1ccccc12 [4-dibenzofuranboronic acid] | −0.0736
OB(O)c1cccc(OCc2ccccc2)c1 [3-(benzyloxy)phenylboronic acid] | −0.1159
OB(O)C1CC1 [cyclopropylboronic acid] | −0.0484
N#Cc1ccc(B(O)O)s1 [5-cyanothiophene-2-boronic acid] | −0.01
CN(C)c1ccc(B(O)O)cc1 [4-(dimethylamino)phenylboronic acid] | −0.1318
OB(O)c1cscc1Br [3-bromothiophene-4-boronic acid] | −0.0695
OB(O)c1cccc2cnccc12 [5-isoquinolineboronic acid] | −0.0412
CC(C)OB(CBr)OC(C)C [diisopropyl(bromomethyl)boronate] | −0.0205
OB(O)c1cncc(Br)c1 [5-bromopyridine-3-boronic acid] | −0.038
CCOc1ccc(B(O)O)cn1 [2-ethoxy-5-pyridine-boronic acid] | −0.1416
OB(O)c1cc2cc(Br)ccc2s1 [5-bromobenzo-B-thophene-2boronic acid] | −0.0244
COc1cccc(OC)c1B(O)O [2,6-dimethoxyphenylboronic acid] | −0.0679
Cc1noc(C)c1B(O)O [3,5-dimethylisoxazole-4-boronic acid] | −0.061
OB(O)c1ccc2ccccc2c1 [2-napthylboronic acid] | 0.06402
OB(O)/C=C/c1ccccc1 [trans-2-Phenylvinylboronic acid] | −0.1303
OB(O)c1ccccc1Cl [2-chlorophenylboronic acid] | −0.0957
N#Cc1cc(B(O)O)ccc1F [3-cyano-4-fluorophenylboronic acid] | −0.0231
NC(=O)c1cccc(B(O)O)c1 [3-aminocarbonylphenylboronic acid] | −0.0696
OB(O)C1=CCCC1 [cyclopenten-1-yl boronic acid] | −0.0551
OB(O)c1ccnc(Cl)c1 [2-chloropyridine-4-boronic acid] | −0.1195

Same assay, conditions: HeLa cells, 80 nM, 2 h; PCC between nuclear and cytoplasmic fraction of NF-κB

SMILES | Inflammation (PCC) 80 nM
OB(O)c1cnc(OCc2ccccc2)nc1OCc1ccccc1 [2,4-bis(benzyloxy)pyrimidine-5-boronic acid] | −0.0533
CCS(=O)(=O)c1ccc(B(O)O)cc1 [4-ethylsulfonyl-phenylboronic acid] | 0.1802
O=c1[nH]cc(B(O)O)c(=O)[nH]1 [uracil-5-boronic acid] | 0.00516
COc1ccc(C#N)cc1B(O)O [5-cyano-2-methoxyphenylboronic acid] | −0.0523
CCCOc1ccccc1B(O)O [2-propoxyphenylboronic acid] | 0.03035
OB(O)c1cccc2c1oc1ccccc12 [4-dibenzofuranboronic acid] | −0.0438
OB(O)c1cccc(OCc2ccccc2)c1 [3-(benzyloxy)phenylboronic acid] | 0.0809
OB(O)C1CC1 [cyclopropylboronic acid] | 0.03475
N#Cc1ccc(B(O)O)s1 [5-cyanothiophene-2-boronic acid] | 0.1051
CN(C)c1ccc(B(O)O)cc1 [4-(dimethylamino)phenylboronic acid] | −0.0051
OB(O)c1cscc1Br [3-bromothiophene-4-boronic acid] | 0.1568
OB(O)c1cccc2cnccc12 [5-isoquinolineboronic acid] | 0.02463
CC(C)OB(CBr)OC(C)C [diisopropyl(bromomethyl)boronate] | 0.02739
OB(O)c1cncc(Br)c1 [5-bromopyridine-3-boronic acid] | 0.1311
CCOc1ccc(B(O)O)cn1 [2-ethoxy-5-pyridine-boronic acid] | −0.0136
OB(O)c1cc2cc(Br)ccc2s1 [5-bromobenzo-B-thophene-2boronic acid] | −0.01
COc1cccc(OC)c1B(O)O [2,6-dimethoxyphenylboronic acid] | 0.03888
Cc1noc(C)c1B(O)O [3,5-dimethylisoxazole-4-boronic acid] | 0.0057
OB(O)c1ccc2ccccc2c1 [2-napthylboronic acid] | 0.2437
OB(O)/C=C/c1ccccc1 [trans-2-Phenylvinylboronic acid] | 0.1523
OB(O)c1ccccc1Cl [2-chlorophenylboronic acid] | .00949
N#Cc1cc(B(O)O)ccc1F [3-cyano-4-fluorophenylboronic acid] | 0.1014
NC(=O)c1cccc(B(O)O)c1 [3-aminocarbonylphenylboronic acid] | 0.07022
OB(O)C1=CCCC1 [cyclopenten-1-yl boronic acid] | 0.01168
OB(O)c1ccnc(Cl)c1 [2-chloropyridine-4-boronic acid] | 0.00374

Same assay, conditions: HeLa cells, 160 nM, 2 h; PCC between nuclear and cytoplasmic fraction of NF-κB

SMILES | Inflammation (PCC) 160 nM
OB(O)c1cnc(OCc2ccccc2)nc1OCc1ccccc1 [2,4-bis(benzyloxy)pyrimidine-5-boronic acid] | 0.04709
CCS(=O)(=O)c1ccc(B(O)O)cc1 [4-ethylsulfonyl-phenylboronic acid] | 0.129
O=c1[nH]cc(B(O)O)c(=O)[nH]1 [uracil-5-boronic acid] | −0.01522
COc1ccc(C#N)cc1B(O)O [5-cyano-2-methoxyphenylboronic acid] | −0.08086
CCCOc1ccccc1B(O)O [2-propoxyphenylboronic acid] | −0.04954
OB(O)c1cccc2c1oc1ccccc12 [4-dibenzofuranboronic acid] | −0.128
OB(O)c1cccc(OCc2ccccc2)c1 [3-(benzyloxy)phenylboronic acid] | 0.3768
OB(O)C1CC1 [cyclopropylboronic acid] | 0.1705
N#Cc1ccc(B(O)O)s1 [5-cyanothiophene-2-boronic acid] | 0.2434
CN(C)c1ccc(B(O)O)cc1 [4-(dimethylamino)phenylboronic acid] | 0.213
OB(O)c1cscc1Br [3-bromothiophene-4-boronic acid] | 0.1528
OB(O)c1cccc2cnccc12 [5-isoquinolineboronic acid] | 0.2784
CC(C)OB(CBr)OC(C)C [diisopropyl(bromomethyl)boronate] | 0.1157
OB(O)c1cncc(Br)c1 [5-bromopyridine-3-boronic acid] | 0.2913
CCOc1ccc(B(O)O)cn1 [2-ethoxy-5-pyridine-boronic acid] | 0.1498
OB(O)c1cc2cc(Br)ccc2s1 [5-bromobenzo-B-thophene-2boronic acid] | 0.1265
COc1cccc(OC)c1B(O)O [2,6-dimethoxyphenylboronic acid] | 0.2607
Cc1noc(C)c1B(O)O [3,5-dimethylisoxazole-4-boronic acid] | −0.01277
OB(O)c1ccc2ccccc2c1 [2-napthylboronic acid] | 0.09593
OB(O)/C=C/c1ccccc1 [trans-2-Phenylvinylboronic acid] | 0
OB(O)c1ccccc1Cl [2-chlorophenylboronic acid] | 0.09948
N#Cc1cc(B(O)O)ccc1F [3-cyano-4-fluorophenylboronic acid] | 0
NC(=O)c1cccc(B(O)O)c1 [3-aminocarbonylphenylboronic acid] | 0.1748
OB(O)C1=CCCC1 [cyclopenten-1-yl boronic acid] | 0.1634
OB(O)c1ccnc(Cl)c1 [2-chloropyridine-4-boronic acid] | 0

Same assay, conditions: HeLa cells; boronic acids 80 nM, 2 hrs; LPS positive control

SMILES | nuclear or cytoplasmic localization of NF-κB (FIG. 4 images)
OB(O)c1cccc2cnccc12 [5-isoquinolineboronic acid] | predominantly nuclear NF-κB
